Measured values as given in US7476670B2, “Purine derivatives, method for preparing, pharmaceutical compositions and novel use” (Aventis Pharma S.A., priority 2003, dated 2009).
Converted amounts (≈) assume the structure as drawn.

Tests used:
CaCiv1 = CaCiv1 (Candida albicans, UniProt A0A1D8PH53); test: Assay for inhibition of CIV-CDK (CIV1) activity; assay type: biochemical; conditions: CaCiv1 with Cdk2 substrate, [33P]ATP, 30 min ambient temperature; read-out: IC50 as micromolar
Source text: 1) Assay for Inhibition of CIV-CDK (CIV1) Activity
a) Preparation of the Reagents

SRC kinase = target: T1, SRC kinase (Homo sapiens, UniProt P12931); test: Assay for inhibition of SRC kinase activity; assay type: biochemical; conditions: fluorescence polarization, read-out: percentage inhibition at 20 μM
T1 construct: purchased Upstate Biotechnology 14-117
Procedure: 2) Assay for Inhibition of SRC Kinase Activity
The inhibition is determined by fluorescence polarization, the […] kinase phosphorylates a peptide detected by adding an anti-phosphopeptide antibody coupled to a fluorescent label.
The assay is carried out in a final volume of 50 μl; all the reagents are prepared in a buffer: • 25 mM HEPES/NaOH pH 7.6 • 5 mM MgCl2 • 2 mM MnCl2 • 50 μM Na2VO4 5 μl of the 10-times concentrated inhibitor are added to 25 μl of enzyme (12 U/ml final concentration), (Upstate Biotechnology ref 14-117). After incubation for 5 minutes at ambient temperature, 10 μl of PolyGluTyr 4/1 (150 ng/ml final concentration) and 10 μl of ATP (5 μM final concentration) are added. The detection is carried out after incubation for 20 minutes at ambient temperature. • Results obtained expressed as percentage inhibition at 20 μM • Example 8 98% • Example 15 99% • Example 20 99% • Example 24 99% • Example 27 95% • Example 30 99% • Example 32 100% • Example 38 95% 3) Assay for Inhibition of CDK2 Activity

ZAP kinase = target: T2, ZAP kinase (Homo sapiens, UniProt P43403); test: Assay for inhibition of ZAP kinase activity; assay type: biochemical; conditions: fluorescence polarization, read-out: percentage inhibition at 20 μM
T2 construct: purchased Panvera P2782
T2 sequence (P43403 1-619): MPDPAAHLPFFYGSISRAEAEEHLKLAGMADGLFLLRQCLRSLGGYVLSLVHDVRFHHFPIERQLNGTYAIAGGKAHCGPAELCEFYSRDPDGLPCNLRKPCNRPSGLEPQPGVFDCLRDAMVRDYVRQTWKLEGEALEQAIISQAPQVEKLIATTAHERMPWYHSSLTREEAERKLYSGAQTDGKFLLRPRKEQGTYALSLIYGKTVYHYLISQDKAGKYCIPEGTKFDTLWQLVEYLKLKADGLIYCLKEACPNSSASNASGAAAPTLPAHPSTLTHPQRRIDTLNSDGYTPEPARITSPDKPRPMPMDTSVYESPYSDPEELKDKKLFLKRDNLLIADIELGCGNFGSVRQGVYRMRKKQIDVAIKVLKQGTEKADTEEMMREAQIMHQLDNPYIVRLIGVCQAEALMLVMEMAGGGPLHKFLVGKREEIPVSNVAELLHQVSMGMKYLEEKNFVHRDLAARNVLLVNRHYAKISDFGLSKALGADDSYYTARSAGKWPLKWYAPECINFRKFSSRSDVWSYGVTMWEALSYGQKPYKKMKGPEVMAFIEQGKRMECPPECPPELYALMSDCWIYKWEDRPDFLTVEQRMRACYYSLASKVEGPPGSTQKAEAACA
Procedure: The inhibition of the kinase activity is determined by fluorescence polarization, the ZAP kinase phosphorylates a peptide detected by adding an anti-phosphopeptide antibody coupled to a fluorescent label.
The assay is carried out in a final volume of 50 μl; all the reagents are prepared in a buffer: • 20 mM Tris/HCl pH 7.7 • 7 mM MnCl2 • 50 μM Na2VO4 5 μl of the 10-times concentrated inhibitor are added to 25 μl of enzyme (0.7 μg/ml final concentration) (Panvera ref P2782). After incubation for 5 minutes at ambient temperature, 10 μl of PolyGT (300 ng/ml final concentration) and 10 μl of ATP (0.25 μM final concentration) are added. The detection is carried out after incubation for 15 minutes at ambient temperature. • Results obtained expressed as percentage inhibition at 20 μM • Example 8 98% • Example 20 95% • Example 24 96% 7) Assay for Inhibition of Casein Kinase II Activity

EGF tyr Kinase = target: T3, EGF tyr Kinase (Homo sapiens, UniProt P00533); test: Assay for inhibition of EGF tyr kinase activity; assay type: biochemical; conditions: [33P]ATP, read-out: percentage inhibition at 20 μM
T3 construct: purchased Tebu SE-124
Procedure: The inhibition of the kinase activity is determined by measuring the phosphorylation of its substrate peptide.
The assay is carried out in a final volume of 100 μl.
The incubation buffer is as follows:
• 5 mM Hepes/Tris pH 7.4 • 2% Glycerol • 0.2% triton X100 10 μl of the 10-times concentrated inhibitor are added to 20 μl of incubation buffer containing 1 U/μl final concentration of the enzyme (Tebu, SE-124); 30 μl of incubation buffer containing 0.43 mg/ml final concentration of peptide substrate are then added along with 20 μl of incubation buffer containing 0.4 μM of enzyme and, finally, 20 μl of 6 mM tris/HCl pH 7.4, 15 mM MgCl2 buffer containing 10 μM ATP and radiolabeled ATP, [^33P]ATP (0.25 μCi), are added. The reaction is stopped after incubation for 60 minutes at 30° C. • Results obtained expressed as percentage inhibition at 20 μM • Example 20 100% 10) Assay for Inhibition of AKT Activity

FAK = FAK (Homo sapiens, UniProt Q05397); test: Assay for inhibition of FAK activity (autophosphorylation); assay type: biochemical; conditions: fluorescence polarization, ATP 1 μM; read-out: IC50s expressed as micromolar
Procedure: The inhibition of the kinase activity is determined by fluorescence polarization, the autophosphorylation of FAK is detected by adding an anti-phosphoprotein antibody coupled to a fluorescent label.
The assay is carried out in a final volume of 30 μl; all the reagents are prepared in a buffer: • 50 mM HEPES pH 7.5 • 0.03% triton X100 • 10 mM MgCl2 • 5% Glycerol • 1 mM DTT 10 μl of the 10-times concentrated inhibitor are added to 5 μl of enzyme (100 ng final concentration), and 5 μl of incubation buffer and 10 μl of ATP (1 μM final concentration) are added.

Aspergillus fumigatus = test: Minimum inhibitory concentration in liquid medium, micro method (NCCLS M27-A); assay type: cell-based; conditions: at least 80% inhibition of growth, read after 48-72 h at 37° C., RPMI 1640
Procedure: (§1) The assay is carried out in a final volume of 40 μl; all the reagents are prepared in a buffer: • 50 mM HEPES pH 7.5 • 0.03% triton X100 • 10 mM MgCl2 • 5% Glycerol • 1 mM DTT 10 μl of the 10-times concentrated inhibitor are added to 5 μl of enzyme (75 ng final concentration), and 5 μl of peptide (1 μM final concentration), then 2.5 μl of incubation buffer containing 40 μM ATP and 2.5 μl of radiolabeled ATP, [^33P]ATP (500 nCi), are added. After incubation for 15 minutes at ambient temperature, 10 μl of incubation buffer containing 192 nM of substrate. […] Reference method for broth dilution antifungal susceptibility testing of yeasts. Approved Standard M27-A. NCCLS, Villanova, Pa.); the minimum concentration with which a visible decrease is observed in the cloudiness of the cell growth (at least 80% compared to a control without product) is the Minimum Inhibitory Concentration (MIC) of the antifungal agent with respect to the strain tested.
(§2) RPMI 1640 medium (liquid) without L-glutamine is supplemented with L-glutamine (0.3 g/l or 10.5 ml of a solution at 200 mM) and buffered with 34.54 g/l (0.165 M) of morpholinepropanesulfonic acid (MOPS). The medium is sterilized by filtration. 100 μl of RPMI medium are distributed into each well of a 96-well plate. The appropriate volume. of the antifungal solution is distributed in the first column of the microplate and supplemented with 200 μl of medium. Doubling dilutions are made so as to establish a range of 11 concentrations in each line of the microplate. The 12th well of each row will serve as a growth control. The cell suspension is prepared from a culture (liquid or agar) or from a frozen vial, and is diluted in RPMI medium so as to obtain a cell suspension at 5×10^3−2×10^4 cells/ml. 100 μl of the cell suspension are distributed in the microplate. For all species of Candida, the MIC is read after 24-48 h, and for Cryptococcus and Aspergillus after 48-72 h, of incubation at 37° C. in a normal atmosphere. The MIC is read by visual reading, determining the well which contains the lowest dose of antifungal agent which causes at least 80% inhibition of the growth of the fungus.

Candida albicans = test: as above; assay type: cell-based; conditions: read-out: MIC Candida albicans
Procedure: as §1, §2

Candida glabrata = test: as above; assay type: cell-based; conditions: Nakaseomyces glabratus, read-out: MIC Candida glabrata
Procedure: as §1, §2

Sequence of FAK (Q05397 whole entry, species assumed): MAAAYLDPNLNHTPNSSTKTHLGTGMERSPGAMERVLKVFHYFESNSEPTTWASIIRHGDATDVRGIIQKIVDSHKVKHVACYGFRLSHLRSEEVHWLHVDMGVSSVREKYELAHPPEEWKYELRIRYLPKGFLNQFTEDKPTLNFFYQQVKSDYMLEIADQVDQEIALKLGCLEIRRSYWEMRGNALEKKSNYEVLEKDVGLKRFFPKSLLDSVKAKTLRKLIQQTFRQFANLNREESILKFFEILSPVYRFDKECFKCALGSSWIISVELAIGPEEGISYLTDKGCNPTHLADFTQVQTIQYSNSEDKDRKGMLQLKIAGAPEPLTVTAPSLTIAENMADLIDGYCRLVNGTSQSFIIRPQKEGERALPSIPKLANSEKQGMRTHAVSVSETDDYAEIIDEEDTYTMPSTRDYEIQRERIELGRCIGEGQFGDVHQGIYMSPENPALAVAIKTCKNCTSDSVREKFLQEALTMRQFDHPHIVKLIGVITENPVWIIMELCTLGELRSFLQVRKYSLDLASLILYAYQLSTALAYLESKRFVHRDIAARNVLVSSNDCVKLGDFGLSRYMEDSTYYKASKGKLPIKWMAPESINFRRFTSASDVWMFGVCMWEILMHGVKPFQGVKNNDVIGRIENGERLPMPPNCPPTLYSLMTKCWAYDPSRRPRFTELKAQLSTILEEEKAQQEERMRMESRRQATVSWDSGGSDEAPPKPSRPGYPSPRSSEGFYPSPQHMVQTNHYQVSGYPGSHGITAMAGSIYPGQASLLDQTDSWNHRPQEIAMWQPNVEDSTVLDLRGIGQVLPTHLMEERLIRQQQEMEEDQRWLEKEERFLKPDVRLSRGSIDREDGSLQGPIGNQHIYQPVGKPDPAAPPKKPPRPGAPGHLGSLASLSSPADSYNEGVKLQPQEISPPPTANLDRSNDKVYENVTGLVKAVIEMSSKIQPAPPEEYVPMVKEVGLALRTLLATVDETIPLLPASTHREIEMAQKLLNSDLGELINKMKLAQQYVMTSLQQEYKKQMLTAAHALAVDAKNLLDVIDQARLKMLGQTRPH
T3 sequence (P00533 25-1210): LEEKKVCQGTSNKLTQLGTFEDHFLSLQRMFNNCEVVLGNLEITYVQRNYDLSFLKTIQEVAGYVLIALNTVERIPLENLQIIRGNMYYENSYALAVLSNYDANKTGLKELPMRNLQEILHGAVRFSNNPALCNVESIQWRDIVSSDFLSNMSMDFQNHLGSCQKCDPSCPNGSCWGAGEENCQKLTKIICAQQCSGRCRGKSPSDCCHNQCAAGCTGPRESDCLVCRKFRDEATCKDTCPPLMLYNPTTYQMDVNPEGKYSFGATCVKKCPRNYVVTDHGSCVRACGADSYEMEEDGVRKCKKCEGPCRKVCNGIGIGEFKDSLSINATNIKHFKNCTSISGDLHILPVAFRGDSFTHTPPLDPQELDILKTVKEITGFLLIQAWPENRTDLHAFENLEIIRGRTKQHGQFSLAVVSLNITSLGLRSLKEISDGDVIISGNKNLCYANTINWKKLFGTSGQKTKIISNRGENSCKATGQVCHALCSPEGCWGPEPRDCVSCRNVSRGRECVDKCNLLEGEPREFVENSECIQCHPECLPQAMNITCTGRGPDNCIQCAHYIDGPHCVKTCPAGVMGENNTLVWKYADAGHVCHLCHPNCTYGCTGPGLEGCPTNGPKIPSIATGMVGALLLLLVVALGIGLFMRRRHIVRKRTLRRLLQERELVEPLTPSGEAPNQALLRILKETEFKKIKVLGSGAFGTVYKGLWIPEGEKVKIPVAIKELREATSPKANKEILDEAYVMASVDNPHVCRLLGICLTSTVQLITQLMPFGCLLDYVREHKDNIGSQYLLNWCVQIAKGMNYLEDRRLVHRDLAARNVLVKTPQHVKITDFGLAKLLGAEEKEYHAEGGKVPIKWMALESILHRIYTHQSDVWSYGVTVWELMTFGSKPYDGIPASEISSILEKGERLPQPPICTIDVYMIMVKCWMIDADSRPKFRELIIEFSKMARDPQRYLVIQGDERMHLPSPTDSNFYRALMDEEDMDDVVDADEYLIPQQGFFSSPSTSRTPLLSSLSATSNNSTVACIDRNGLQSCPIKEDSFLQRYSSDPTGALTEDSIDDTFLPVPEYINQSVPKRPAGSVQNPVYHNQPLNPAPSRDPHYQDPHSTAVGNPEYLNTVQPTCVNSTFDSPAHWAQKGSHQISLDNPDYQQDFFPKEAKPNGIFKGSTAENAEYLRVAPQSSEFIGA
Sequence of CaCiv1 (A0A1D8PH53 entry or part of it): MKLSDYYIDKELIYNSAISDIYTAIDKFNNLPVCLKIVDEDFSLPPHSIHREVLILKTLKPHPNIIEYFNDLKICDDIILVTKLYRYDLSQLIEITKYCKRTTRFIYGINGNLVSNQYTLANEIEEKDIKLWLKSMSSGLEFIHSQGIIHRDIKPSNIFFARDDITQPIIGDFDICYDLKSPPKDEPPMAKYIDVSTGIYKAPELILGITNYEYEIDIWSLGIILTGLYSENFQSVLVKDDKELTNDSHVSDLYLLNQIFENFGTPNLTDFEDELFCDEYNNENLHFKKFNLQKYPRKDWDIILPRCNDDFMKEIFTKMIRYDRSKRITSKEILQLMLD
T1 sequence (P12931 whole entry): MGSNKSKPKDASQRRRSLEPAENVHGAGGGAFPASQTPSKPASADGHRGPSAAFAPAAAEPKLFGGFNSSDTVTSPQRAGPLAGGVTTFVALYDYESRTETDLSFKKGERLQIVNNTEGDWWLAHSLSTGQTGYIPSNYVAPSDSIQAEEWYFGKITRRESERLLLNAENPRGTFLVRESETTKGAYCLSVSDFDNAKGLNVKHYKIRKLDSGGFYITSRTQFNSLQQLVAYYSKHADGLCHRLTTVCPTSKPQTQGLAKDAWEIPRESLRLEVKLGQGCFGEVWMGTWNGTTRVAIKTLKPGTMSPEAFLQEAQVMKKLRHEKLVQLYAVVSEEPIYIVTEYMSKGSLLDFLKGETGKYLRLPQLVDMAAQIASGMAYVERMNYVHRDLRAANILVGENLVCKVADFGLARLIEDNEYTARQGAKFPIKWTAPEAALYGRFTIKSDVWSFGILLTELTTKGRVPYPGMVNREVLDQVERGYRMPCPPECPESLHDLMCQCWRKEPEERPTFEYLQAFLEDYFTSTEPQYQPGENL

Compound: N[C@H]1CC[C@H](Nc2nc(-n3cnc4cc(OCc5ccccc5)ccc43)c3nc[nH]c3n2)CC1 [Example 20, Trans-N-[6-[5-(phenylmethoxy)-1H-benzimidazol-1-yl]-9H-purin-2-yl]-1,4-cyclohexanediamine]
- IC50 (CaCiv1): 1.7 µM
- inhibition at 20 µM (SRC kinase): 99%
- inhibition at 20 µM (ZAP kinase): 95%
- inhibition at 20 µM (EGF tyr Kinase): 100%
- IC50 (FAK): 1.6 µM
- MIC Aspergillus fumigatus (Aspergillus fumigatus): 32 µg/mL (≈ 70.4 µM)
- MIC (Candida albicans): 32 µg/mL (≈ 70.4 µM)
- MIC (Candida glabrata): 16 µg/mL (≈ 35.2 µM)
